The text below walks through data of article PMC6792352, “Limited Chemical Structural Diversity Found to Modulate Thyroid Hormone Receptor in the Tox21 Chemical Library” (Environmental Health Perspectives, 2019).

Where two headings read alike, the source gives them in different places. Bounds are passed on as bounds.

In data set [1] the test system is thyroid hormone receptor (endogenous TRα and TRβ). In words: cells. Particulars: 24 h, read-out: TR_LUC_GH3_Agonist_AC50 (uM). Also noted: species or system GH3-TRE-Luc (rat pituitary); GH3-TRE-Luc luciferase reporter transactivation, agonist mode, qHTS; RXR ligands can also activate indirectly.
For data set [2] the test system is unchanged. Nature of the data set: cells. Also noted: species or system GH3-TRE-Luc (rat pituitary); GH3-TRE-Luc luciferase reporter, antagonist mode against 1 nM T3, loss of signal, qHTS. Particulars: 24 h; antagonist mode, 1 nM T3; no GH3 cytotoxicity hit; read-out: Average AC50 (uM) GH3-TRE-Antag.
The nature of another data set: in vitro. Also noted: species or system GH3-TRE-Luc (rat pituitary); CellTiter-Fluor viability run in parallel with antagonist mode (1 nM T3), loss of viability. The note with it: rat, gh3-tre-luc cells, AC50 (uM) modified / 1000, Tox21_110001=Tox21_113033, viability, 1 nM T3 present.
Data set [3] deals with thyroid hormone receptor (TR). Nature of the data set: Classification of TR actives across characterization assays (TR-Ag / RXR-Ag; TR model binary). Particulars: candidate chemicals in Tables 2 and 3 define actives. Summed up:
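Pharmaceuticals excluded; actives called from GH3-TRE qHTS (agonist, antagonist, viability) on 8,305 chemicals. Confirmation of 84 selected chemicals used GH3-TRE-Ag, mammalian one-hybrid TRβ and RXRα UAS-bla HEK 293T specificity screens, parental HEK293T viability, and two TR:coactivator recruitment assays.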

For a further data set, the system named is estrogen receptor. Also noted: method as in Judson et al. 2015. Particulars: model values ≥0.1 define actives; ref Judson et al. 2015; cited from earlier work.
The target in data set [4] is human retinoid X receptor alpha (RXRα) ligand-binding domain of the GeneBLAzer RXRα-UAS-bla HEK 293T one-hybrid assay (human).

Consider `C[C@]12CC[C@@H]3c4ccc(OC(=O)N(CCCl)CCCl)cc4CC[C@H]3[C@@H]1CC[C@@H]2OP(=O)(O)O` [Estramustine phosphate], for which the AC50 in data set [1] is over 50 µM; in data set [2] it was 42.9 µM. Further, the CC50 at 24 h in the data set “in vitro” was over 50 µM.

Turning to (-)-alpha-Pinene, in data set [3], the TR_Model_Binary_Agonist came to 0 and the TR_Model_Binary_Antagonist amounted to 0. Besides, in the data set on estrogen receptor, the ER_Model_AUC_Agonist is recorded as 0 and the ER_Model_AUC_Antagonist is listed as 0.

Sincalide (peptide) registered an RXRa-bla-Ag AC50 (β-lactamase reporter gene, RXRα-UAS-bla HEK 293T mammalian one-hybrid assay, agonist mode) in data set [4] of 10.5 µM.

A word on the CC50: it is the concentration that lowers cell viability or growth by half.
